Laboratory results taken from publication PMC8286840, “Identifying SARS-CoV-2 antiviral compounds by screening for small molecule inhibitors of Nsp3 papain-like protease” (Biochemical Journal, 2021).
Counter-ions that a name gives are not always drawn. Like-named read-outs stand apart in the source and are kept apart here. Where a SMILES comes first, the peptide text is derived from it. [ ]: non-standard residue; d: D form. The star is where a group is joined. Dolaproine = CO[C@@H]([C@@H]1CCCN1)[C@@H](C)C(=O)O; Hexanoyl(6-maleimido) = O=C1C=CC(=O)N1CCCCCC(=O)*; Dil = CC[C@H](C)[C@H](NC)[C@@H](CC(=O)O)OC; Doe = c1ccc(C[C@H](N*)c2nccs2)cc1; X2 = C[C@@H](N*)[C@@H](O)c1ccccc1; NMeV = CN[C@H](C(=O)O)C(C)C

Columns and labels:
[1] = biological target: T1, SARS-CoV-2 PLpro (nsp3 1564–1878) (Severe acute respiratory syndrome coronavirus 2, UniProt P0DTD1); test: biochemical; parameters: FRET-quenched peptide (Pro3) cleavage by PLpro, 10 min pre-incubation, slope over 20 min, normalised to no-compound control; conditions: high concentration screen, read-out: % of control remaining
[2] = biological target: T1, SARS-CoV-2 PLpro (nsp3 1564–1878); test: biochemical; parameters: FRET-quenched peptide (Pro3) cleavage by PLpro, 10 min pre-incubation, slope over 20 min, normalised to no-compound control; conditions: low concentration screen, read-out: % of control remaining

CC[C@H](C)[C@@H]([C@@H](CC(=O)N1CCC[C@H]1[C@H](OC)[C@@H](C)C(=O)N[C@@H](Cc1ccccc1)c1nccs1)OC)N(C)C(=O)[C@@H](NC(=O)[C@H](C(C)C)N(C)C(=O)CCCCCN1C(=O)C=CC1=O)C(C)C [Mc-MMAD] ({Hexanoyl(6-maleimido)}-[NMeV]V[Dil][Dolaproine]-Doe)
remaining activity at 3.75 µM ([1]; Well no.=8610): 91.2%
remaining activity at 1.25 µM ([2]; Well no.=8610): 95.3%

CC[C@H](C)[C@@H]([C@@H](CC(=O)N1CCC[C@H]1[C@H](OC)[C@@H](C)C(=O)N[C@H](C)[C@@H](O)c1ccccc1)OC)N(C)C(=O)[C@@H](NC(=O)[C@H](C(C)C)N(C)C(=O)CCCCCN1C(=O)C=CC1=O)C(C)C [Mc-MMAE] ({Hexanoyl(6-maleimido)}-[NMeV]V[Dil][Dolaproine]-X2)
remaining activity at 3.75 µM ([1]; Well no.=8552): 98.9%
remaining activity at 1.25 µM ([2]; Well no.=8552): 93.6%

CC[C@H](C)[C@@H]([C@@H](CC(=O)N1CCC[C@H]1[C@H](OC)[C@@H](C)C(=O)N[C@@H](Cc1ccccc1)C(=O)O)OC)N(C)C(=O)[C@@H](NC(=O)[C@H](C(C)C)N(C)C(=O)CCCCCN1C(=O)C=CC1=O)C(C)C [McMMAF] ({Hexanoyl(6-maleimido)}-[NMeV]V[Dil][Dolaproine]F-OH)
remaining activity at 3.75 µM ([1]; Well no.=7742): 101%
remaining activity at 1.25 µM ([2]; Well no.=7742): 97.3%

C[N+](C)(C)CC#CCOC(=O)Nc1cccc(Cl)c1 [McN-A-343]
remaining activity at 3.75 µM ([1]; Well no.=184): 96.2%
remaining activity at 1.25 µM ([2]; Well no.=184): 102%

O=C(O)COc1ccccc1C(Nc1ccccn1)c1cc(Cl)c2cccnc2c1O (centres unmarked) [Mcl1-IN-1]
remaining activity at 3.75 µM ([1]; Well no.=6880): 96.8%
remaining activity at 1.25 µM ([2]; Well no.=6880): 99.8%

CN(N=O)c1ccc(O)c(O)c1 [Me-3,4-dephostatin]
remaining activity at 3.75 µM ([1]; Well no.=1131): 91.3%
remaining activity at 1.25 µM ([2]; Well no.=1131): 95.2%

CCCCCCCC/C=C\C/C=C\C/C=C\CCCC(=O)NCCO [Mead ethanolamide]
remaining activity at 3.75 µM ([1]; Well no.=4324): 95.4%
remaining activity at 1.25 µM ([2]; Well no.=4324): 99.8%

COC(=O)Nc1nc2cc(C(=O)c3ccccc3)ccc2[nH]1 [Mebendazol]
remaining activity at 3.75 µM ([1]; Well no.=1947): 100%
remaining activity at 1.25 µM ([2]; Well no.=1947): 99%

CCN(CCCCOC(=O)c1ccc(OC)c(OC)c1)C(C)Cc1ccc(OC)cc1 (centres unmarked) [Mebeverine (hydrochloride)]
remaining activity at 3.75 µM ([1]; Well no.=7048): 101%
remaining activity at 1.25 µM ([2]; Well no.=7048): 108%

CN1CCc2c(c3ccccc3n2Cc2ccccc2)C1 [Mebhydrolin (napadisylate)]
remaining activity at 3.75 µM ([1]; Well no.=7437): 94.1%
remaining activity at 1.25 µM ([2]; Well no.=7437): 99.4%

CNC1(C)C2CCC(C2)C1(C)C (centres unmarked) [Mecamylamine hydrochloride]
remaining activity at 3.75 µM ([1]; Well no.=987): 99.8%
remaining activity at 1.25 µM ([2]; Well no.=987): 98.1%

CNC1(C)C2CCC(C2)C1(C)C (centres unmarked) [Mecamylamine]
remaining activity at 3.75 µM ([1]; Well no.=1556): 102%
remaining activity at 1.25 µM ([2]; Well no.=1556): 103%

CCOC(=O)c1c(C)n(C)c2ccc(O)cc12 [Mecarbinate]
remaining activity at 3.75 µM ([1]; Well no.=4756): 95.8%
remaining activity at 1.25 µM ([2]; Well no.=4756): 98.2%

Cc1ccc(Cl)c(Nc2ccccc2C(=O)O)c1Cl [Meclofenamic acid sodium salt]
remaining activity at 3.75 µM ([1]; Well no.=5492): 106%
remaining activity at 1.25 µM ([2]; Well no.=5492): 104%

Cc1ccc(Cl)c(Nc2ccccc2C(=O)O)c1Cl [Meclofenamic acid sodium]
remaining activity at 3.75 µM ([1]; Well no.=784): 103%
remaining activity at 1.25 µM ([2]; Well no.=784): 103%

Cc1cccc(C(C)c2c[nH]cn2)c1C (centres unmarked) [Medetomidine (hydrochloride)]
remaining activity at 3.75 µM ([1]; Well no.=7479): 99.7%
remaining activity at 1.25 µM ([2]; Well no.=7479): 103%

Cc1cccc(C(C)c2c[nH]cn2)c1C (centres unmarked) [Medetomidine HCl]
remaining activity at 3.75 µM ([1]; Well no.=4927): 100%
remaining activity at 1.25 µM ([2]; Well no.=4927): 99.2%

CC(=O)O[C@]1(C(C)=O)CC[C@H]2[C@@H]3C[C@H](C)C4=CC(=O)CC[C@]4(C)[C@H]3CC[C@@]21C [Medroxyprogesterone 17-Acetate]
remaining activity at 3.75 µM ([1]; Well no.=1949): 104%
remaining activity at 1.25 µM ([2]; Well no.=1949): 103%

Cc1cccc(Nc2ccccc2C(=O)O)c1C [Mefenamic acid]
remaining activity at 3.75 µM ([1]; Well no.=1951): 99.7%
remaining activity at 1.25 µM ([2]; Well no.=1951): 97.7%

CC(=O)O[C@]1(C(C)=O)CC[C@H]2[C@@H]3C=C(C)C4=CC(=O)CC[C@]4(C)[C@H]3CC[C@@]21C [Megestrol Acetate]
remaining activity at 3.75 µM ([1]; Well no.=2236): 93.2%
remaining activity at 1.25 µM ([2]; Well no.=2236): 95%

CNC[C@H](O)[C@@H](O)[C@H](O)[C@H](O)CO [Meglumine]
remaining activity at 3.75 µM ([1]; Well no.=1565): 104%
remaining activity at 1.25 µM ([2]; Well no.=1565): 104%

CN1C(=O)/C(=C2/C(=O)Nc3ccccc32)c2ccccc21 [Meisoindigo]
remaining activity at 3.75 µM ([1]; Well no.=6772): 95%
remaining activity at 1.25 µM ([2]; Well no.=6772): 94.5%

COc1ccc2[nH]cc(CCNC(C)=O)c2c1 [Melatonin]
remaining activity at 3.75 µM ([1]; Well no.=1072): 101%
remaining activity at 3.75 µM ([1]; Well no.=1665): 107%
remaining activity at 3.75 µM ([1]; Well no.=3320): 98.5%
remaining activity at 3.75 µM ([1]; Well no.=6347): 102%
remaining activity at 3.75 µM ([1]; Well no.=6565): 96.1%
remaining activity at 1.25 µM ([2]; Well no.=1072): 98.6%
remaining activity at 1.25 µM ([2]; Well no.=1665): 106%
remaining activity at 1.25 µM ([2]; Well no.=3320): 99.3%
remaining activity at 1.25 µM ([2]; Well no.=3990): 101%
remaining activity at 1.25 µM ([2]; Well no.=6347): 97.8%
remaining activity at 1.25 µM ([2]; Well no.=6565): 103%

C=C1C[C@H]2[C@@H]3C=C(C)C4=CC(=O)CC[C@]4(C)[C@H]3CC[C@]2(C)[C@@]1(OC(C)=O)C(C)=O [Melengestrol Acetate]
remaining activity at 3.75 µM ([1]; Well no.=2238): 99.4%
remaining activity at 1.25 µM ([2]; Well no.=2238): 99.1%

Cc1cnc(NC(=O)C2=C(O)c3ccccc3S(=O)(=O)N2C)s1 [Meloxicam sodium]
remaining activity at 3.75 µM ([1]; Well no.=974): 99.2%
remaining activity at 1.25 µM ([2]; Well no.=974): 98.2%

Cc1cnc(NC(=O)C2=C(O)c3ccccc3S(=O)(=O)N2C)s1 [Meloxicam]
remaining activity at 3.75 µM ([1]; Well no.=1578): 96.6%
remaining activity at 1.25 µM ([2]; Well no.=1578): 94.4%

N[C@@H](Cc1ccc(N(CCCl)CCCl)cc1)C(=O)O [Melphalan]
remaining activity at 3.75 µM ([1]; Well no.=1112): 94.4%
remaining activity at 1.25 µM ([2]; Well no.=1112): 94.4%
remaining activity at 1.25 µM ([2]; Well no.=1953): 100%

CC12CC3CC(C)(C1)CC(N)(C3)C2 [Memantine hydrochloride]
remaining activity at 3.75 µM ([1]; Well no.=1083): 99.3%
remaining activity at 1.25 µM ([2]; Well no.=1083): 97.8%

CC12CC3CC(C)(C1)CC(N)(C3)C2 [Memantine.HCl]
remaining activity at 3.75 µM ([1]; Well no.=1887): 95.2%
remaining activity at 1.25 µM ([2]; Well no.=1887): 94.9%

CC1=CC(=O)c2ccccc2C1=O [Menadione]
remaining activity at 3.75 µM ([1]; Well no.=3372): 96.5%
remaining activity at 3.75 µM ([1]; Well no.=6251): 101%
remaining activity at 1.25 µM ([2]; Well no.=3372): 98.5%
remaining activity at 1.25 µM ([2]; Well no.=6251): 99.2%

C[N+]1(C)CCCC(OC(=O)C(O)(c2ccccc2)c2ccccc2)C1 (centres unmarked) [Mepenzolate (Bromide)]
remaining activity at 3.75 µM ([1]; Well no.=7911): 100%
remaining activity at 1.25 µM ([2]; Well no.=7911): 102%
